Row | SMILES | melting point [°C]
1 | CSCCC(NC(=O)OCc1ccccc1)C(=O)Nc1nncs1 (racemic) | 155 to 159
2 | CCCCC(CC)C(=O)Nc1ccc(-n2nc(C(F)(F)F)cc2C(F)(F)F)cc1 (stereo not given) | 127 to 128
3 | Cc1cnnc2ccccc12 | 70 to 72
4 | O=c1oc2ccccc2c(O)c1CCCCC1CCCCC1 | 160 to 161
5 | CCN(CC)C(=O)c1cc2ccccc2c(-c2ccccc2)n1 | 72
6 | CC(=O)c1ccc(OC(C)c2ccnc3ncnn23)cc1 (stereo not given) | 136 to 138
7 | CC(C)(CC(N)=O)C(Br)(Br)Br | 109 to 111
8 | COc1ccc(-c2coc3ccc(-c4nnc(SCc5ccc(OC)c(C(F)(F)F)c5)o4)cc23)cc1 | 162 to 163
9 | CCCC(=O)CCCC(=O)CCCSCCCC(C)(C)C(=O)OCC | 104 to 105
10 | Oc1cccc(CN2CCCC2)c1 | 100 to 102
11 | CC(C)(C)c1cc(SC2CCN(S(=O)(=O)c3ncc(CO)[nH]3)CC2)cc(C(C)(C)C)c1O | 122 to 123
12 | CCC(Cc1cccc(F)c1)n1nnc2cc3c(cc2c1=O)OC1CCCN1C3=O (stereo not given) | 117 to 119
13 | C=CCn1c(=O)[nH]c(=O)n(-c2cc(N3C(=O)C4=C(CCCC4)C3=O)c(F)cc2Cl)c1=O | 130 to 145
14 | COc1ccc(-c2nnc3c4ccccc4c(Nc4ccc(N)cc4)nn23)cc1 | 295
15 | CC(C)(C)c1cc(SCCC(=O)N2CCOCC2)cc(C(C)(C)C)c1O | 136 to 138
16 | OC1(c2ccccc2Cc2ccccc2)CCC2(CC1)OCCO2 | 97 to 98
17 | CNc1ccc(-c2cc[nH]n2)cc1 | 78 to 86
18 | Cc1oc(-c2ccccc2)nc1CCc1ccc(COc2ccccc2CC(=O)O)cc1 | 130 to 131
19 | COC(=O)c1cnc2n1CCc1ccccc1C2=C1CCN(CCc2ccc(OCc3ccc4ccccc4n3)cc2)CC1 | 179
20 | Nc1nc2c(s1)CCN(CC=Cc1cccc(O)c1)CC2 | 85 to 95
21 | Cc1oc(-c2ccccc2)nc1COc1cc(F)cc(CN(O)C(N)=O)c1 | 157 to 158

Row | SMILES | melting point [°C]
22 | Cc1c(S(N)(=O)=O)c(C(F)(F)F)nn1C | 204 to 206
23 | COc1ccc(Nc2nc(Nc3ccc(OC)c(Cl)c3)nc(NC3CCCCCC3)n2)cc1Cl | 183
24 | CCCCCCCCCCCCCCCCCCOc1ccc(C(=O)C(=O)N(CC(=O)OCC)CC(=O)OCC)cc1 | 63 to 64
25 | CCCC(C)(C)C(=O)O[C@H]1C[C@H](O)C=C2C=C[C@H](C)[C@H](CC[C@@H]3C[C@@H](O)CC(=O)O3)[C@H]21 | 143 to 144
26 | O=C(c1ccccc1)c1ccc2nc(Br)c(C(F)(F)F)nc2c1 | 124 to 126
27 | O=C(COc1cc(-c2cccs2)nc2ccccc12)N1CCOCC1 | 198
28 | COc1ccc(C(=O)CCCCCl)cc1S(=O)(=O)Cl | 69 to 70
29 | CC1COC(C2CCC(O)C2)N1C(=O)c1ccccc1 (stereo not given) | 83 to 85
30 | CCS(=O)(=O)c1cc2c(cc1OC)CCn1c3c(c(Br)c1-2)CCCCN(C(C)(C)C)C3=O | 227
31 | O=c1oc2c(c(=O)n1C1CCCCC1)CCC2 | 72 to 74
32 | COc1c(C)c(OC(=O)c2c(C)c(C)c(OCCCOc3ccc(C(=O)O)cc3)c(C)c2OC)c(C)c(C)c1C(N)=O | 267 to 268
33 | C=CC(CC(O)C(CC1CCCCC1)NC(=O)C(Cc1c[nH]cn1)NC(=O)C(CN)(Cc1ccccc1)Cc1ccccc1)C(C)C (stereo not given) | 89
34 | CNC(=O)C1N=C(c2ccccc2)c2cc(Cl)ccc2NC1=O (stereo not given) | 294
35 | N=C(N)Nc1nc(CSCCC(=O)NS(N)(=O)=O)cs1 | 160
36 | Cc1ccc2c(c1)c(-c1ccccc1)nn2CO | 109 to 111
37 | CN(C)C(=O)Nc1snc(S(C)=O)c1C#N (stereo not given) | 178 to 179
38 | O[C@@H](COc1cccc(-c2noc3ccsc23)c1)CN1CCN(c2ccccc2)CC1 | 127 to 129
39 | Cc1ccc2c(c1)c1c(n2Cc2ccccc2)CCCC1C(=O)O (stereo not given) | 200 to 208
40 | Cc1nc2ccc3c(c2o1)OC(CN1CC=C(c2c[nH]c4ccc(C#N)cc24)CC1)CO3 (stereo not given) | 119
41 | COc1cc(/C=C/C(=O)CC(=O)c2ccccc2)ccc1O | 159 to 162
42 | O=C(O)c1cc2cc(Cl)ccc2nc1N[C@@H](CO)Cc1ccccc1 | 213 to 216

Row | SMILES | melting point [°C]
43 | OC(c1cc(-c2ccc(F)cc2)c(-c2ccc(F)cc2)[nH]1)C(F)(F)F (stereo not given) | 121 to 122
44 | COc1cc2c(nc1OC)c(-c1cc3cc(F)cnc3[nH]1)cn2CCN1CCOCC1 | 218
45 | O=C(/C=C/c1ccccc1)Nc1ccccc1C(=O)O | 188 to 189
46 | CC(C)OC(=O)N1CCC(c2nc3cc(-c4ccc(C(N)=O)cc4F)ccc3o2)CC1 | 194 to 197
47 | CCCCc1oc2ccc(NS(C)(=O)=O)cc2c1C(O)c1ccc(OCCCN(CCCC)CCCC)cc1 (stereo not given) | 94
48 | CCCc1nc2c(N)nc(C)c(C)c2n1CCCCN1CCCS1(=O)=O | 155 to 161
49 | C=CC(=O)Oc1c(Cc2cc(C)cc(C(C)(C)C)c2O)cc(C)cc1C(C)(C)C | 132 to 134
50 | NC(=O)CCn1nccc1-c1ccc(Oc2ccc(F)cc2)cc1 | 118 to 120
51 | FC(F)(F)Oc1ccc(-n2cnc3ccc(-c4nnc(N5CCOCC5)o4)cc32)cc1 | 202 to 203
52 | CC(NC(=NC#N)Nc1cccnc1)c1ccccc1 (stereo not given) | 185 to 187
53 | CCCCc1nc2c(N)nc3ccccc3c2n1CCCCS(=O)(=O)c1ccccc1 | 179 to 180
54 | O=C1OC(Cc2ccccc2)(Cc2ccccc2)C2CNCCN12 (stereo not given) | 132 to 133
55 | COc1cc2c(cc1OC)N(C(=O)c1ccc(-c3ccccc3C(F)(F)F)c(C)c1)Cc1ccc(C(=O)N(CCO)CCO)n1C2 | 130 to 132
56 | Cn1ccc(NC(=O)c2cc(C#N)cc(C(F)(F)F)n2)n1 | 190
57 | NNc1nc2cc(Cl)c(Cl)cc2nc1Cl | < 260
58 | O=C(NCCCCSc1ccncc1)c1ccccc1CO | 87 to 88
59 | CCCC/C=C\CCCCCCCC(=O)Nc1nc(CC(=O)O)cs1 | 110 to 111
60 | O=C(Oc1ccccc1)OC1c2ccccc2C(=O)N1c1ccc2ccc(Cl)nc2n1 (stereo not given) | 235
61 | Cn1nc(-c2ccc(C(=O)N3CCN(C4CCCC4)CC3)cc2)ccc1=O | 177 to 179
62 | COc1ccc2[nH]c(SCc3nccc(N4CCOCC4)n3)nc2c1 | 188 to 192

More lines, now with the values ahead:

Row | melting point [°C] | SMILES
63 | 164 to 166 | COc1ccc(C2CCN(C(=O)Nc3ccc4cc(CN5C(C)(C)CCCC5(C)C)ccc4c3)CC2)cc1
64 | 80 | COc1ccc([C@@]2(C)CNC(=O)O2)cc1OC1CCCC1
65 | 270 to 273 | CNc1c(F)cc2c(=O)c(C(=O)O)cn(-c3nc(N)c(F)cc3F)c2c1F
66 | 125 to 126 | C=CCc1ccc(C=CC(=O)c2ccc(OCC=C(C)C)cc2OCC(=O)O)cc1
67 | 137 to 142 | CSC1C(=O)Nc2ccc(Oc3ccc(F)c(C(F)(F)F)c3Cl)cc21 (stereo not given)
68 | 168 to 170 | O=C(NCCN1CCOCC1)NCc1ccc2c(c1)Cc1c(-c3ccsc3)n[nH]c1-2
69 | 217 to 220 | C[C@]1(COc2ccc(N3CCC(OCc4ccc(C(F)(F)F)cc4)CC3)cc2)Cn2cc([N+](=O)[O-])nc2O1
70 | 212 to 214 | CCOC(=O)c1cnc(SC)nc1Nc1ccc2cn[nH]c2c1
71 | > 280 | CCn1c(=O)c2[nH]c(/C=C/c3cc(C(F)(F)F)cc(C(F)(F)F)c3)nc2n(CC)c1=O
72 | 280 | Cn1cc(-c2cccc(C(=O)O)c2)c(=O)c(-n2cccn2)c1
73 | 247 to 248 | O=C1C2=C(CCCC2)C(=O)N1c1ccc(Br)c(O)c1
74 | 123 to 125 | CC(=O)Oc1ccc(C2=COc3ccccc3O2)cc1
75 | 115 to 121 | CNC(COc1ccc(C2C(=O)Oc3c2cc(C(C)(C)C)cc3C(C)(C)C)cc1)C(=O)O (stereo not given)
76 | 291 | CC(C)c1cccc(C(C)C)c1N1C(=O)c2cccc3c(C#N)ccc(c23)C1=O
77 | 67 to 68 | CSCc1ccc(-c2cccnc2)o1
78 | 83 | COc1cc(C=O)c(OC)cc1C
79 | 160 to 161 | COc1ccc2c(=O)c(C=O)coc2c1OC(C)=O
80 | 166 | O=C1CN2C(=O)N(c3cc(Cl)nc(Cl)c3)C(=O)[C@@]2(Cc2ccc(OC(F)(F)F)cc2)C1
81 | 132 to 133 | O=Cc1c(O)c(O)cc2ccccc12

Row | melting point [°C] | SMILES
82 | 166 to 168 | CCOC(=O)c1nc2ccc(I)cc2[nH]1
83 | 187 to 188 | NC(=O)c1c(F)ccc(OCC=CC(=O)O)c1F
84 | 132 to 133 | CN(c1cccc2cc(C(=O)NCC(C)(CCO)SCc3ccccc3)[nH]c12)S(=O)(=O)c1cccs1 (stereo not given)
85 | 226 to 227 | Brc1nc(-c2cccnc2)[nH]c1Br
86 | 161 | NC(=O)C(c1ccc(Cl)cc1)c1ccc(-n2ncc(=O)[nH]c2=O)cc1Cl (stereo not given)
87 | 111 to 112 | CCOCC(O)COc1ccc(NC(=O)CCS(C)(=O)=O)cc1 (stereo not given)
88 | < 295 | CC(=O)Cn1cnc2c1c(=O)[nH]c(=O)n2C
89 | 222 to 223 | CC1(c2ccc(O)cc2)C(=O)Nc2cc(Cl)cc(Cl)c2C1=O (stereo not given)
90 | 38 to 41 | CCCCCc1c(C(=O)OCC)oc2cc(OC)ccc12
91 | 201 | COc1ccc2ccccc2c1CC(NC(C)=O)C(=O)O (stereo not given)
92 | 116 | CCCc1cnc2c(c1)C(=O)N1C2=NC(=O)C1(C)C(C)C (stereo not given)
93 | 100 | CC(=C(F)c1ccccc1)c1ccc2c(c1)C(C)(C)CCC2(C)C
94 | 259 to 263 | CC1(C)C(=O)NC(=O)c2c1ccc(N)c2[N+](=O)[O-]
95 | 196 to 198 | O=C1CN(c2ccccc2)C(=O)N1C(=O)c1ccc(-c2ccccc2)cc1
96 | 133 to 134 | COc1cccc(CN2Cc3cc(OC)c(O)cc3C(OC)C2)c1 (stereo not given)
97 | 107 to 108 | COC(=N)c1ccc(-c2ccccc2[N+](=O)[O-])o1
98 | 146 to 147 | Cc1nccn1Cc1ccc(N)cc1C(F)(F)F
99 | 90 to 91 | CCCCC1(CC)COP(=O)(Cc2ccc(N)cc2)OC1 (stereo not given)
100 | 98 to 112 | CCC(=O)c1cc(C2(c3cccc(-c4cccnc4F)c3)N=C(N)N(C)C2=O)cs1 (stereo not given)
